Reference: the supplement of paper PMC10627819

Experiments:
B. subtilis 168 [1] = test: fitness (endpoint OD595 vs no drug) (fraction); higher = more growth
How it was run: (§1)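 Fitness was defined as the optical density at the transition into stationary phase relative to the robust mean of no-drug control wells. Values were capped at 1. Cultures were started at OD595 0.01 in 384-well plates (30 µl, or 55 µl for S. pneumoniae) in TSB, LB Lennox or CY at 37 °C. OD595 was recorded every 30 min over 14 h, with the first reading subtracted as background.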

S. aureus DSM 20231 [2] = test: as above
How it was run: as §1

B. subtilis 168 [3] = test: Bliss interaction score (quartile over a dose matrix) (fitness difference); higher = more antagonism (negative = synergy)
How it was run: (§2)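 Fitness here means normalised growth, inferred for single drugs from the combination data. Growth was OD595 at entry into stationary phase, divided by the plate's robust no-drug mean and capped at 1. The Bliss score is observed minus expected fitness, with the expectation being the product, and its quartiles span technical, biological and donor/recipient replicates.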

S. aureus DSM 20231 [4] = test: as above
How it was run: as §2

S. aureus Newman = test: as above
How it was run: as §2

S. pneumoniae D39V [5] = test: as above
How it was run: as §2

S. pneumoniae D39V [6] = test: fitness (endpoint OD595 vs no drug) (fraction); higher = more growth
How it was run: as §1
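For Bliss interaction score (quartile over a dose matrix) in this document: first quartile when negative (synergy) and third quartile when positive (antagonism).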

CC(=O)NC[C@H]1CN(c2ccc(N3CCOCC3)c(F)c2)C(=O)O1 [Linezolid] + COc1cc(Cc2cnc(N)nc2N)cc(OC)c1OC [Trimethoprim]
one replicate
Conditions	fitness
B. subtilis 168 [1], first compound 0.0625 µg/mL, partner 0.125 µg/mL	0.455
B. subtilis 168 [1], first compound 0.0625 µg/mL, partner 0.25 µg/mL	0.379
B. subtilis 168 [1], first compound 0.0625 µg/mL, partner 0.5 µg/mL	0.365
B. subtilis 168 [1], first compound 0.125 µg/mL, partner 0.1 µg/mL	0.661
B. subtilis 168 [1], first compound 0.125 µg/mL, partner 0.2 µg/mL	0.51
B. subtilis 168 [1], first compound 0.125 µg/mL, partner 0.4 µg/mL	0.458
B. subtilis 168 [1], first compound 0.125 µg/mL, partner 1 µg/mL	0.338
B. subtilis 168 [1], first compound 0.125 µg/mL, partner 2 µg/mL	0.252
B. subtilis 168 [1], first compound 0.25 µg/mL, partner 0.1 µg/mL	0.224
B. subtilis 168 [1], first compound 0.25 µg/mL, partner 0.2 µg/mL	0.137
B. subtilis 168 [1], first compound 0.25 µg/mL, partner 0.4 µg/mL	0.0855
B. subtilis 168 [1], first compound 0.25 µg/mL, partner 1 µg/mL	0.0539
B. subtilis 168 [1], first compound 0.25 µg/mL, partner 2 µg/mL	0.0332
B. subtilis 168 [1], first compound 0.5 µg/mL, partner 0.1 µg/mL	0.0326
B. subtilis 168 [1], first compound 0.5 µg/mL, partner 0.125 µg/mL	0.0335
B. subtilis 168 [1], first compound 0.5 µg/mL, partner 0.2 µg/mL	0.0707
B. subtilis 168 [1], first compound 0.5 µg/mL, partner 0.4 µg/mL	0.034
B. subtilis 168 [1], first compound 0.5 µg/mL, partner 1 µg/mL	0.0459
B. subtilis 168 [1], first compound 0.5 µg/mL, partner 2 µg/mL	0.0328
S. aureus DSM 20231 [2], first compound 0.125 µg/mL, partner 0.125 µg/mL	0.693
S. aureus DSM 20231 [2], first compound 1 µg/mL, partner 0.125 µg/mL	0.0426
S. aureus DSM 20231 [2], first compound 1 µg/mL, partner 0.25 µg/mL	0.0292
S. aureus DSM 20231 [2], first compound 1 µg/mL, partner 0.5 µg/mL	0.0293

fitness
Conditions	partner 0.125 µg/mL	partner 0.25 µg/mL	partner 0.5 µg/mL	partner 1 µg/mL
B. subtilis 168 [1], first compound 0.125 µg/mL	0.481	–	–	–
B. subtilis 168 [1], first compound 0.25 µg/mL	0.178	0.239	0.149	–
B. subtilis 168 [1], first compound 0.5 µg/mL	–	0.0539	0.0519	–
S. aureus DSM 20231 [2], first compound 0.125 µg/mL	–	0.7	0.54	0.0522
S. aureus DSM 20231 [2], first compound 0.25 µg/mL	0.511	0.566	0.462	0.118
S. aureus DSM 20231 [2], first compound 0.5 µg/mL	0.157	0.153	0.139	0.115

Conditions	Bliss interaction score
B. subtilis 168 [3]	0.0503
S. aureus DSM 20231 [4]	0.129
S. aureus Newman	0.096
S. pneumoniae D39V [5]	-0.161

CC(=O)NC[C@H]1CN(c2ccc(N3CCOCC3)c(F)c2)C(=O)O1 [Linezolid] + CN[C@@H]1[C@H](O)[C@H](NC)[C@H]2O[C@@]3(O)C(=O)C[C@@H](C)O[C@H]3O[C@@H]2[C@H]1O [Spectinomycin]
one replicate
Conditions	fitness
B. subtilis 168 [1], first compound 0.0625 µg/mL, partner 2 µg/mL	0.893
B. subtilis 168 [1], first compound 0.0625 µg/mL, partner 4 µg/mL	0.814
B. subtilis 168 [1], first compound 0.0625 µg/mL, partner 8 µg/mL	0.654
S. aureus DSM 20231 [2], first compound 0.125 µg/mL, partner 32 µg/mL	0.472
S. aureus DSM 20231 [2], first compound 0.125 µg/mL, partner 64 µg/mL	0.0532
S. aureus DSM 20231 [2], first compound 0.25 µg/mL, partner 32 µg/mL	0.341
S. aureus DSM 20231 [2], first compound 0.25 µg/mL, partner 64 µg/mL	0.037
S. aureus DSM 20231 [2], first compound 0.5 µg/mL, partner 32 µg/mL	0.135
S. aureus DSM 20231 [2], first compound 0.5 µg/mL, partner 64 µg/mL	0.0476
S. aureus DSM 20231 [2], first compound 1 µg/mL, partner 4 µg/mL	0.0244
S. aureus DSM 20231 [2], first compound 1 µg/mL, partner 8 µg/mL	0.0183
S. aureus DSM 20231 [2], first compound 1 µg/mL, partner 16 µg/mL	0.009
S. pneumoniae D39V [6], first compound 0.2 µg/mL, partner 4 µg/mL	0.8
S. pneumoniae D39V [6], first compound 0.2 µg/mL, partner 8 µg/mL	0.769
S. pneumoniae D39V [6], first compound 0.4 µg/mL, partner 4 µg/mL	0.633
S. pneumoniae D39V [6], first compound 0.4 µg/mL, partner 8 µg/mL	0.659
S. pneumoniae D39V [6], first compound 0.8 µg/mL, partner 4 µg/mL	0.271
S. pneumoniae D39V [6], first compound 0.8 µg/mL, partner 8 µg/mL	0.302

fitness
Conditions	partner 2 µg/mL	partner 4 µg/mL	partner 8 µg/mL	partner 16 µg/mL
B. subtilis 168 [1], first compound 0.125 µg/mL	0.507	0.426	0.336	–
B. subtilis 168 [1], first compound 0.25 µg/mL	–	0.0516	0.0689	–
B. subtilis 168 [1], first compound 0.5 µg/mL	0.0491	0.039	0.0208	–
S. aureus DSM 20231 [2], first compound 0.125 µg/mL	–	0.857	0.838	0.702
S. aureus DSM 20231 [2], first compound 0.25 µg/mL	–	0.547	0.458	0.419
S. aureus DSM 20231 [2], first compound 0.5 µg/mL	–	0.156	0.119	0.175
S. pneumoniae D39V [6], first compound 0.105 µg/mL	–	0.767	0.73	0.694
S. pneumoniae D39V [6], first compound 0.21 µg/mL	–	0.663	0.662	0.582
S. pneumoniae D39V [6], first compound 0.42 µg/mL	–	0.454	0.343	0.284

Conditions	Bliss interaction score
B. subtilis 168 [3]	-0.0551
S. aureus DSM 20231 [4]	-0.0609
S. aureus Newman	-0.12
S. pneumoniae D39V [5]	-0.134

CC(=O)NC[C@H]1CN(c2ccc(N3CCOCC3)c(F)c2)C(=O)O1 [Linezolid] + CN1C2=CC=CC=C2N=C3C1=CC=CC3=O [Pyocyanin]
one replicate
Conditions	fitness
B. subtilis 168 [1], first compound 0.0625 µg/mL, partner 1.25 µg/mL	0.804
B. subtilis 168 [1], first compound 0.0625 µg/mL, partner 2.5 µg/mL	0.749
B. subtilis 168 [1], first compound 0.0625 µg/mL, partner 5 µg/mL	0.594
S. aureus DSM 20231 [2], first compound 1 µg/mL, partner 1.25 µg/mL	0.0458
S. aureus DSM 20231 [2], first compound 1 µg/mL, partner 2.5 µg/mL	0.0282
S. aureus DSM 20231 [2], first compound 1 µg/mL, partner 5 µg/mL	0.0258
S. pneumoniae D39V [6], first compound 0.2 µg/mL, partner 0.325 µg/mL	0.892
S. pneumoniae D39V [6], first compound 0.2 µg/mL, partner 0.65 µg/mL	0.824
S. pneumoniae D39V [6], first compound 0.4 µg/mL, partner 0.325 µg/mL	0.745
S. pneumoniae D39V [6], first compound 0.4 µg/mL, partner 0.65 µg/mL	0.745
S. pneumoniae D39V [6], first compound 0.8 µg/mL, partner 0.325 µg/mL	0.483
S. pneumoniae D39V [6], first compound 0.8 µg/mL, partner 0.65 µg/mL	0.603

Conditions	fitness
B. subtilis 168 [1], first compound 0.125 µg/mL, partner 1.25 µg/mL	0.563
B. subtilis 168 [1], first compound 0.125 µg/mL, partner 2.5 µg/mL	0.544
B. subtilis 168 [1], first compound 0.125 µg/mL, partner 5 µg/mL	0.466
B. subtilis 168 [1], first compound 0.25 µg/mL, partner 2.5 µg/mL	0.093
B. subtilis 168 [1], first compound 0.25 µg/mL, partner 5 µg/mL	0.131
B. subtilis 168 [1], first compound 0.5 µg/mL, partner 1.25 µg/mL	0.027
B. subtilis 168 [1], first compound 0.5 µg/mL, partner 2.5 µg/mL	0.0397
B. subtilis 168 [1], first compound 0.5 µg/mL, partner 5 µg/mL	0.0383
S. aureus DSM 20231 [2], first compound 0.125 µg/mL, partner 1.25 µg/mL	0.768
S. aureus DSM 20231 [2], first compound 0.125 µg/mL, partner 2.5 µg/mL	0.829
S. aureus DSM 20231 [2], first compound 0.125 µg/mL, partner 5 µg/mL	0.546
S. aureus DSM 20231 [2], first compound 0.25 µg/mL, partner 1.25 µg/mL	0.559
S. aureus DSM 20231 [2], first compound 0.5 µg/mL, partner 1.25 µg/mL	0.208
S. aureus DSM 20231 [2], first compound 0.5 µg/mL, partner 2.5 µg/mL	0.143
S. aureus DSM 20231 [2], first compound 0.5 µg/mL, partner 5 µg/mL	0.0745
S. pneumoniae D39V [6], first compound 0.105 µg/mL, partner 0.325 µg/mL	0.858
S. pneumoniae D39V [6], first compound 0.105 µg/mL, partner 0.65 µg/mL	0.882
S. pneumoniae D39V [6], first compound 0.105 µg/mL, partner 1.3 µg/mL	0.632
S. pneumoniae D39V [6], first compound 0.21 µg/mL, partner 0.325 µg/mL	0.773
S. pneumoniae D39V [6], first compound 0.21 µg/mL, partner 0.65 µg/mL	0.775
S. pneumoniae D39V [6], first compound 0.21 µg/mL, partner 1.3 µg/mL	0.608
S. pneumoniae D39V [6], first compound 0.42 µg/mL, partner 0.325 µg/mL	0.605
S. pneumoniae D39V [6], first compound 0.42 µg/mL, partner 0.65 µg/mL	0.589
S. pneumoniae D39V [6], first compound 0.42 µg/mL, partner 1.3 µg/mL	0.389

Conditions	Bliss interaction score
B. subtilis 168 [3]	0.109
S. aureus DSM 20231 [4]	0.047
S. aureus Newman	-0.0368
S. pneumoniae D39V [5]	0.118

CC(=O)NC[C@H]1CN(c2ccc(N3CCOCC3)c(F)c2)C(=O)O1 [Linezolid] + CCN(CC)CCOC(=O)c1ccc(N)cc1 [Procaine]
fitness, one replicate
Conditions	partner 85.5 µg/mL	partner 171 µg/mL	partner 342 µg/mL
B. subtilis 168 [1], first compound 0.0625 µg/mL	0.828	0.846	0.858
S. aureus DSM 20231 [2], first compound 1 µg/mL	0.0561	0.0334	0.05
S. pneumoniae D39V [6], first compound 0.2 µg/mL	0.792	0.839	0.778
S. pneumoniae D39V [6], first compound 0.4 µg/mL	0.609	0.669	0.621
S. pneumoniae D39V [6], first compound 0.8 µg/mL	0.245	0.335	0.271

fitness
Conditions	first compound 0.105 µg/mL	first compound 0.125 µg/mL	first compound 0.21 µg/mL	first compound 0.25 µg/mL	first compound 0.42 µg/mL	first compound 0.5 µg/mL
B. subtilis 168 [1], partner 85.5 µg/mL	–	0.587	–	0.101	–	0.022
B. subtilis 168 [1], partner 171 µg/mL	–	0.613	–	0.0992	–	0.0423
B. subtilis 168 [1], partner 342 µg/mL	–	0.569	–	0.0813	–	0.0154
S. aureus DSM 20231 [2], partner 85.5 µg/mL	–	0.839	–	0.574	–	0.15
S. aureus DSM 20231 [2], partner 171 µg/mL	–	0.832	–	0.643	–	0.193
S. aureus DSM 20231 [2], partner 342 µg/mL	–	0.768	–	0.582	–	0.143
S. pneumoniae D39V [6], partner 85.5 µg/mL	0.824	–	0.728	–	0.579	–
S. pneumoniae D39V [6], partner 171 µg/mL	0.816	–	0.719	–	0.569	–
S. pneumoniae D39V [6], partner 342 µg/mL	0.801	–	0.699	–	0.535	–

Conditions	Bliss interaction score
B. subtilis 168 [3]	0.0668
S. aureus DSM 20231 [4]	-0.0676
S. aureus Newman	0.111
S. pneumoniae D39V [5]	0.0684
